This note sets out measurements from patent US4355024A, “Method and feed for stimulating the growth of animals” (priority 1979, dated 1982).

The nature of the experiment: Growth stimulation in rats fed chow containing the additive (body weight over 15 days). The class given is in vivo, Wistar strain rats. The following applies: 0.25% wt/wt in feed; for Mean Body Weight, experimental animals: 10 male Wistar rats; for Body Weight of Animals (individual experimental animals): male Wistar rats. The procedure: Two groups of 10 Wistar strain rats each, all males to avoid estrus cyclical changes in the 15-day experimental period, were kept in two separate stock cages in an animal room maintained at 25° C. with an automatic 12-hour light-12-hour-dark cycle. Dry standard laboratory chow pellets were made up into a wet mash by adding a 1:1 mixture of water (wt/wt), which then was compressed by hand into balls weighing approximately 20 grams each. To each 20 g ball made for the experimental group, 50 mg of the methyl ester of L-aspartyl-L-phenylalanine was added, which represents a 0.25% wt/wt admixture. More than adequate food was made freely available to the animals at all times and drinking water was made available ad libitum. All individual rats were numbered by a colored stripe system marked on the tail. The animals were weighed on a balance to an accuracy of 1 gram at the start of the experiment (3 days after arrival in the cages to allow them to adjust to their new environment). They were then weighed again after 2, 4, 6, 8, 10, 12 and 14 days from the start of the new diet (i.e., days 3, 5, 7, 9, 11, 13 and 15 of the experiment). The rates of growth of the control and experimental animals is summarized in tabular form below: […]

The mark [1] stands for this setting: Day 1 (start of diet, baseline).

Several values for one entry are separate records, joined by “and”; a condition that tells them apart may be missing. Equal entries are not always repeated. Peptide text beside a SMILES is read from it.

For the molecule `COC(=O)[C@H](Cc1ccccc1)NC(=O)[C@@H](N)CC(=O)O` [methyl ester of L-aspartyl-L-phenylalanine] (H-Asp-Phe-OMe), the “Mean Body Weight, experimental animals” value runs as follows: under setting [1], 102.6 grams; (Day 3) 117.8 grams; (Day 5) 133.4 grams; (Day 7) 149.8 grams; (Day 9) 166.8 grams; (Day 11) 183.1 grams. The “Mean Body Weight, experimental animals” value was determined as 199.9 grams (Day 13) and 215.9 grams (Day 15). In addition, the “Body Weight of Animals (individual experimental animals)” value (shortened to “Body Weight of Animals”) under setting [1] is 94 grams and 105 grams and 96 grams and 110 grams and 102 grams and 98 grams and 104 grams and 95 grams and 114 grams and 108 grams; the “Body Weight of Animals” value (Day 3) is 112 grams and 119 grams and 110 grams and 128 grams and 120 grams and 109 grams and 129 grams; the “Body Weight of Animals” value (Day 5) is 130 grams and 135 grams and 126 grams and 145 grams and 134 grams and 127 grams and 124 grams; the “Body Weight of Animals” value (Day 7) was 148 grams and 153 grams and 143 grams and 161 grams and 150 grams and 149 grams and 140 grams and 162 grams; the “Body Weight of Animals” value (Day 9) is 169 grams and 160 grams and 161 grams and 178 grams and 166 grams and 158 grams and 165 grams and 155 grams and 180 grams; the “Body Weight of Animals” value (Day 11) was 184 grams and 188 grams and 180 grams and 193 grams and 183 grams and 172 grams and 181 grams and 169 grams and 197 grams. In addition, the “Body Weight of Animals” value (Day 13) was 203 grams and 204 grams and 195 grams and 209 grams and 202 grams and 186 grams and 200 grams and 184 grams and 213 grams; the “Body Weight of Animals” value (Day 15) was 220 grams and 223 grams and 211 grams and 226 grams and 217 grams and 201 grams and 215 grams and 198 grams and 227 grams and 221 grams. Where the note is “rats, after 2 weeks”, the “mean body weight of the experimental group higher than the mean body weight of the control group” value is on record as “about 34%”. Moreover, the “increase in body weight versus control (in words)” value (rats, beginning with the seventh day of the experiment) was “significant increases in body weight”.
